From publication PMC12627627 (Nature Communications, 2025)
“And” between values parts separate entries of the source, which are not always exact repeats. Equal entries are not always repeated.

Legend:
RyR1-W995A R12 = target: T1, RyR1-W995A R12 (Homo sapiens, UniProt P21817, W995A); experiment: ITC, RyR1 R12 W995A; format: binding
T1 construct: RyR1 854–1054, RyR2 865–1065, RyR3 853–1053; made in house; host or cells: E. coli BL21 (DE3)
T1 sequence (P21817 854-1054 W995A): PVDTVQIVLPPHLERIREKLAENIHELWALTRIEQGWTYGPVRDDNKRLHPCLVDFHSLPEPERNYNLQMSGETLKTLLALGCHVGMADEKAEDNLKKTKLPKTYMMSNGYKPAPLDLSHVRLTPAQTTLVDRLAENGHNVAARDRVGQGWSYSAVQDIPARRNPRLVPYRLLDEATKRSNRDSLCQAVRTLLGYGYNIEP
Procedure: The plasmids were subsequently transformed into E. coli BL21 (DE3) cells (NEB, USA) and cultured in Luria-Bertani (LB) media at 37 °C. Protein expression was induced with 0.4 mM isopropyl β-D-thiogalactoside (IPTG) when the optical density (OD)600 reached ~0.8, followed by incubation at 18 °C for 12 h. The cells were harvested via centrifugation at 5,000 × g for 15 min at 4 °C and homogenized in Buffer A (10 mM HEPES, pH 7.4, 250 mM KCl) supplemented with 25 µg/mL DNaseI, 25 µg/mL lysozyme, 1 mM phenylmethylsulfonyl fluoride (PMSF), and 20 mM imidazole. The homogenate was centrifuged at 12,000 × g for 45 min, and the supernatant was filtered through a syringe filter (0.22 µm).
Purified R12 domain protein from the three RyR isoforms, fused with hexahistidine-tagged MBP (HMT-R12) was dialyzed overnight at 4 °C in ITC buffer (200 mM HEPES, pH 7.4, 150 mM KCl). ITC experiments were performed using a PEAQ-ITC instrument (Malvern, UK) at 25 °C with a stirring speed of 750 rpm. […] For the ternary binding experiments, 500 μM or 5 mM AMP-PCP/ADP was preincubated with both the titrants and titrates. […] The data was fit to a one-site fitting model after background buffer subtraction. The RyR1 R12 mutants were generated using a QuikChange mutagenesis kit (Stratagene) according to the manufacturer’s protocol, with primer sequences listed in Supplementary Table 3.

[1] = set-up: method as in PMID 1729917, PMID 2790379; conditions: water-soluble analog compared with DAN; cited from earlier work
RyR1 W881A = target: T2, RyR1 W881A (Oryctolagus cuniculus, UniProt P11716, W882A); experiment: Time-lapse [Ca2+]ER measurement, HEK293 cells expressing RyR1 W881A; format: cell-based; conditions: 4 mM caffeine; for ER luminal [Ca2+] change (F/F0): Fig. 5H source data, RyR1-W881A, single replicates
T2 construct: expressed in transfected cells
Procedure: HEK293 cells stably expressing R-CEPIA1er and RyRs (WT RyR1, RyR1-W881A, RyR1-W995A, RyR1-R2163C, and WT RyR2)[26],[27] were used in this study. Briefly, the cells were seeded at a density of 2 × 10⁴ cells/well in a 96-well black, clear-bottom plate (Corning). Doxycycline (2 µg/mL) was added 12 h after seeding, and the medium was replaced 24 h later with HEPES-buffered Krebs solution (5 mM HEPES, pH 7.4; 140 mM NaCl; 5 mM KCl; 2 mM CaCl₂; 1 mM MgCl₂; and 11 mM glucose). Fluorescence measurements were conducted using a FlexStation 3 fluorometer (Molecular Devices) at 37 °C. The R-CEPIA1er was excited at 560 nm, emitted at 610 nm, and captured every 10 seconds over 300 seconds. Different concentrations of compound, dissolved in buffer containing 1% DMSO, were added 100 s after recording began. The fluorescence changes (F/F₀) were calculated by dividing the average fluorescence of the last 100 seconds (F) by that of the first 100 seconds (F₀). All measurements were performed in triplicate.

Compound | binding to RyR1 R12 W995A by ITC (RyR1-W995A R12; in the presence of AMP-PCP or ADP) | binding to RyR1 R12 W995A by ITC (RyR1-W995A R12; no nucleotide) | solubility relative to DAN [1] | ER luminal [Ca2+] change (F/F0) (RyR1 W881A; RI-2 0.1 uM) | ER luminal [Ca2+] change (F/F0) (RyR1 W881A; RI-2 0.3 uM) | ER luminal [Ca2+] change (F/F0) (RyR1 W881A; RI-2 1 uM) | ER luminal [Ca2+] change (F/F0) (RyR1 W881A; RI-2 3 uM) | ER luminal [Ca2+] change (F/F0) (RyR1 W881A; RI-2 10 uM) | ER luminal [Ca2+] change (F/F0) (RyR1 W881A; RI-2 30 uM) | ER luminal [Ca2+] change (F/F0) (RyR1 W881A; RI-2 100 uM) | inhibitory effect in time-lapse ER Ca2+ measurements (RyR1 W881A; RyR1 W881A)
O=C1CN(/N=C/c2ncc(-c3ccc(Br)cc3)o2)C(=O)N1 [AZU, Azumolene] | can no longer be detected | completely abolishes | approximately 30 fold | – | – | – | – | – | – | – | –
O=C(C[C@@H](NCCCO)C(=O)O)Nc1ccc2ccccc2c1 [RI-2] | – | – | – | 0.9939 and 0.9815 and 1.025 | 0.9808 and 0.9609 and 0.9633 | 0.959 and 0.9789 and 1.039 | 0.968 and 1.003 and 1.025 | 0.9988 and 0.9974 and 1.012 | 1.035 and 0.9972 and 1.041 | 0.9975 and 1.115 and 0.9708 | completely lost
